What was measured:
ERα receptor = target: T1, ERα receptor (Rattus norvegicus, UniProt P06211); assay: Saturation binding / Scatchard analysis, D12 cytosolic (S2) fraction
T1 sequence (P06211 1-600): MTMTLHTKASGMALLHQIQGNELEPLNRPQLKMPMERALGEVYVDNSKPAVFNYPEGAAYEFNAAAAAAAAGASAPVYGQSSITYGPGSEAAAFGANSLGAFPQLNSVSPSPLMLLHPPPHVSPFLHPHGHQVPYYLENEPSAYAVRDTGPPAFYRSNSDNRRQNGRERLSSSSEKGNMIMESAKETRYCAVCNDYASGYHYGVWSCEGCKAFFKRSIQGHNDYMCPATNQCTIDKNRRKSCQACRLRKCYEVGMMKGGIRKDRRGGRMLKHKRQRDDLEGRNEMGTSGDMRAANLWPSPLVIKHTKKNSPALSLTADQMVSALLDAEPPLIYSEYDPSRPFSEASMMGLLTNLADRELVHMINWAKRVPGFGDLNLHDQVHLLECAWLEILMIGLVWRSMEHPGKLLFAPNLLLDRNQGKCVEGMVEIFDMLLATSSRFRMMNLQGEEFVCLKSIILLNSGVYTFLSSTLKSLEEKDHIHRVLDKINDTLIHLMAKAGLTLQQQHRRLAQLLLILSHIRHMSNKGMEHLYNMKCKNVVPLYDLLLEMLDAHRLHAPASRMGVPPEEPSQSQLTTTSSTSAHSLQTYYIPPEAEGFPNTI
Description: (§1) Briefly, cells were harvested in a binding buffer (10 mM Tris-HCl, 1 mM EDTA, 1 mM DTT; pH=7.2) containing 5 μg/ml protease inhibitors (aprotinin, leupeptin, phosphoramidon, PMSF, pepstatin), pelleted to remove cell media and then homogenized by mechanical disruption (polytron; speed 6 for 10 sec). Unlysed cells and debris were removed by centrifugation at 15,000×g for 15 min at 4° C. The resulting supernatant was homogenized and membranes were isolated by centrifugation at 100,000×g for 1 h at 4° C. The supernatant obtained following the high speed spin was labeled S2 (cytosol) while the pellet was labeled P2 (membranes). The pellet (P2) was resuspended using a glass homogenizer in 3 ml of 0.25 M sucrose in binding buffer. The sucrose gradient was layered in a 15 ml centrifuge tube starting with 41%, 25%, and 10% sucrose using J tubes. The P2 sample was added to the top and the remaining layer was capped with binding buffer. The tubes were centrifuged at 35,000×g for 1 h, placed in a fraction collector (bottom tube draw) and 500 μl samples were collected. Protein concentrations were determined with BCA reagent (Pierce). […] Statistical significance between IC50s and KDs was determined using a pair-wise Z-test. […]

mER receptor = assay: Saturation binding / Scatchard analysis, D12 membrane (P2) fraction; parameters: species or system rat
Description: as §1

SMILES: C[C@]12CC[C@@H]3c4ccc(O)cc4CC[C@H]3[C@@H]1C[C@@H]([125I])[C@@H]2O [[^125I]-16α-iodo-3,17β-E2, [^125I]-16-α-iodo-3,17-βestradiol]
- slope value (ERα receptor; S2 fraction): 0.8
- Kd (ERα receptor; cytosolic (S2) binding): 0.124 ± 0.0171 nM
- Kd (mER receptor): 0.118 ± 0.0436 nM

— patent US20040180819A1, “Characterization of a membrane estrogen receptor” (priority 2001, published 2004)
